Source: ChEMBL document CHEMBL1130833, “Inhibition of electric eel acetylcholinesterase by porphin compounds” (Bioorg Med Chem Lett, 1998)

Molecular target: Acetylcholinesterase (Electrophorus electricus, UniProt O42275)
Assay: Compound was evaluated for inhibitory constant for the electric eel Acetylcholinesterase (AChE)

Chain of Acetylcholinesterase (O42275 whole entry): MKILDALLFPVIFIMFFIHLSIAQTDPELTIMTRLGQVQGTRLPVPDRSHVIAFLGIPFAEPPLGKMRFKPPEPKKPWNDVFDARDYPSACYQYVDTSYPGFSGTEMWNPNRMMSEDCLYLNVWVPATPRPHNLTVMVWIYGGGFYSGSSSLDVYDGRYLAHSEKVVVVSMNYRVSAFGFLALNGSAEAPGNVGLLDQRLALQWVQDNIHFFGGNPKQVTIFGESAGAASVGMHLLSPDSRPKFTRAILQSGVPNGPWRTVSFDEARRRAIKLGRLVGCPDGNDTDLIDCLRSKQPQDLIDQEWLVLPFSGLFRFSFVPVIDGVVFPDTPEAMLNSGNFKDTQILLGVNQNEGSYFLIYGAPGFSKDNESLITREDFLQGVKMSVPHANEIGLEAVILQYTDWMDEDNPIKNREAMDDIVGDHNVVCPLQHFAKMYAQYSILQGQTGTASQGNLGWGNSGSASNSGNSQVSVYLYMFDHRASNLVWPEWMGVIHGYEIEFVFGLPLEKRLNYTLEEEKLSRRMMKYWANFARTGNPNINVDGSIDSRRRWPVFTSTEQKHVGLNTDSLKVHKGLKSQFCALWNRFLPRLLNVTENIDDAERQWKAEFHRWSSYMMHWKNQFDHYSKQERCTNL

Compound	Ki (tested as the Zn salt or complex)	Ki
C1=Cc2nc1c(-c1ccccc1)c1ccc([nH]1)c(-c1ccccc1)c1nc(c(-c3ccccc3)c3ccc([nH]3)c2-c2ccccc2)C=C1	5390 nM	–
Fc1cccc(F)c1-c1c2nc(c(-c3c(F)cccc3F)c3ccc([nH]3)c(-c3c(F)cccc3F)c3ccc([nH]3)c(-c3c(F)cccc3F)c3nc1C=C3)C=C2	–	12 nM
Fc1ccc(-c2c3nc(c(-c4ccc(F)cc4F)c4ccc([nH]4)c(-c4ccc(F)cc4F)c4ccc([nH]4)c(-c4ccc(F)cc4F)c4nc2C=C4)C=C3)c(F)c1	–	5 nM
